Source: patent US7659312B2, “Inhibitors of Aquaporin 4, methods and uses thereof” (Niigata University, priority 2006, dated 2010)
Read-outs that look alike come from different tables or passages of the source.

Experiments:
[1] = molecular target: T1, human aquaporin-4 M23 isoform (hAQP4b) (Homo sapiens, UniProt P55087); test: Inhibition of AQP4 mediated hypoosmotic swelling of Xenopus laevis oocytes expressing hAQP4b; type: cell-based; conditions: for inhibition at 20 µM / % Inh (percent inhibition and cumulated error): Table 3, [X]=20 μM, P<0.05; for inhibition at 20 µM: read-out: % Inh (percent inhibition and cumulated error)
T1 construct: Full-length cRNA was subcloned into pSP35T expression vector for Xenopus oocytes; expressed in transfected cells; host or cells: Xenopus laevis oocytes injected with hAQP4b cRNA (pSP35T vector)
Procedure: Compounds studied in vitro were purchased from Sigma-Aldrich, Tokyo Kasei, Wako or Scientific Exchange, and were used without further purification. […] Compound samples were freshly dissolved into DMSO (Sigma, Hibri-Max) and diluted into RO deionized water (Milipore, Ultra-Q) prior to use. Other reagents were purchased from Sigma and Wako and were used without modification. Modified Barth's Medium (MBS) and isolation buffer were prepared using autoclaved, doubly distilled water. MBS was used for up to one week after its preparation. […] Isolation buffer was prepared to contain NaCl (108 mM), KCl (2 mM), EDTA, (2 mM), HEPES (10 mM), and was at pH=7.5.
cDNA encoding human aquaporin-4 M23 isoform (hAQP4b) was cloned by reverse-transcription polymerase chain reaction (RT-PCR). First-strand cDNA was synthesized from human cerebellum total RNA by using the Advantage RT-for-PCR Kit (CLONTECH). The following oligonucleotide PCR primers were designed based on published hAQP4b sequences (Lu, et al. Proc. Nat. Acad. Sci. USA 1996, 93, 10908): forward 5′-[…]-3′, reverse 5′-[…]-3′. Full-length cRNA was subcloned into pSP35T expression vector for Xenopus oocytes (Amaya, et al. Cell 1991, 66, 257).
Oocytes from an adult, female Xenopus laevis were transferred portion-wise to a Petri dish containing isolation buffer, where the follicular membranes and vitelline were removed manually, thereby yielding denuded oocytes (Sakimura, et al. FEBS Lett. 1990, 272, 73). Denuded stage V-VI oocytes were then returned to fresh MBS medium and allowed to equ ilibrate for a minimum of 2 h at 18° C. prior to cRNA injection. Denuded oocytes unused after 24 h were discarded. An aliquot of hAQP4b cRNA solution (20 μL) was pelleted by centrifugation (15,000 rpm, 14 min, 4° C.), the pellet was washed sequentially with 70% aqueous ethanol, then 100% ethanol (centrifugation between washes at 15,000 rpm, 3 min, 4° C.), air dried, and finally reconstituted in distilled water (10 μL). An aliquot (30 nL) of either the resulting 0.1 μg/μL cRNA solution (3 ng hAQP4b cRNA/oocyte) or distilled water (sham) was injected into each oocyte using a Drummond oocyte injection system. The injected oocytes were then incubated for 48 h at 18° C. in MBS. The medium was changed and non-viable oocytes removed 24 and 48 h post injection.
An oocyte assay procedure was developed as follows: At a minimum of 3 h prior to the assay, oocytes were transferred to a 96 well microplate (Falcon 353077) along with 45 μL of MBS. An aliquot of a 200 μM inhibitor solution (5 μL, 1% aq. DMSO), or blank (5 μL, 1% aq. DMSO) was introduced to the oocyte containing well 2 h before the assay. The final concentration of the incubation medium was 20 μM in inhibitor with 0.1% DMSO. A secondary plate was likewise prepared by diluting an aliquot of the 200 μM inhibitor solution (15 μL, 1% aq. DMSO) or blank (15 μL, 1% aq. DMSO) with distilled water (135 μL). The assay was performed by transferring an aliquot of the secondary plate medium (100 μL) to the corresponding well on the incubation plate. […] The initial image (nominally t=3 s) and subsequent images (60 s intervals) were recorded for up to 4 minutes post dilution.
Images were transferred to a PC and the area of each oocyte was evaluated using NIH Image-J. The cross-sectional area values for each oocyte at time=t were converted to volumes assuming a spherical relationship. The relative volume of each oocyte compared to its initial volume was then determined. Relative oocyte volumes were then averaged for n oocytes along with the standard error at each point.

[2] = molecular target: T1, human aquaporin-4 M23 isoform (hAQP4b); test: as above; type: cell-based; design: IAmax: unit not given here; conditions: for IAmax: value in parentheses after IC50, 0.01≦[X]≦100 μM
[3] = tested on: HEK293 cells; conditions: literature report, isozyme not demonstrated; cited from earlier work
[4] = molecular target: T2, AQP1 (Homo sapiens, UniProt P29972); conditions: literature report; cited from earlier work
T2 sequence (P29972 1-269): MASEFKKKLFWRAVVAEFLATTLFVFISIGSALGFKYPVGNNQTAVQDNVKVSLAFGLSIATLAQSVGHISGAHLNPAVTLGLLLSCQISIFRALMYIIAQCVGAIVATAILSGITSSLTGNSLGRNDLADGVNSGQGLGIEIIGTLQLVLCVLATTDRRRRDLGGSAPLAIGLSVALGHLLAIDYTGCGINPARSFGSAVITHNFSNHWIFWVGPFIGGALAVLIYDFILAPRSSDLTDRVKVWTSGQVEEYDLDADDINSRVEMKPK

[5] = molecular target: AQP4 (Homo sapiens, UniProt P55087); conditions: literature report; cited from earlier work
[6] = Table 3, from inhibitory data at 0.01≦[X]≦100 μM, read-out: IC50
[7] = figure legends FIGS. 8-12, non-linear least squares fit of dose dependent inhibition, read-out: IC50

T1 sequence (P55087 23-323): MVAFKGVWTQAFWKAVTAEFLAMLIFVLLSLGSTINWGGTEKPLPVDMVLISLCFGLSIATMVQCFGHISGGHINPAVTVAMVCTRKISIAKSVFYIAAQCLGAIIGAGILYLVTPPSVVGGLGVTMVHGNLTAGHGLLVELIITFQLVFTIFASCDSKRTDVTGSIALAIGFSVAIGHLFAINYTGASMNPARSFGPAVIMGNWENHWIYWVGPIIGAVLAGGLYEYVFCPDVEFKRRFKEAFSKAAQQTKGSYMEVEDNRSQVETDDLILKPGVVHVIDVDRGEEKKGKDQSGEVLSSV
AQP4, sequence (P55087 whole entry): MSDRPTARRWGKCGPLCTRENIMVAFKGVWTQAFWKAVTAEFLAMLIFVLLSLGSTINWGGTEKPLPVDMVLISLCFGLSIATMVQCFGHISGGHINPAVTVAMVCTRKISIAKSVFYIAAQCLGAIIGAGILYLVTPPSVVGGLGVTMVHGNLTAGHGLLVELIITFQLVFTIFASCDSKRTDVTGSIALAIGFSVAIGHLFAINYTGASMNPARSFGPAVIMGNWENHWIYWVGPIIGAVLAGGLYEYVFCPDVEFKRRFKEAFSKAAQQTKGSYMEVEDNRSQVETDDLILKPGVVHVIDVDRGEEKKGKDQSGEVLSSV

Compound	inhibition at 20 µM [1]	IAmax ([2]; Table 3)	further results
CC(=O)Nc1nnc(S(N)(=O)=O)s1 [Compound 1, N-(5-sulfamoyl-1,3,4-thiadiazol-2-yl)acetamide]	78 ± 3%	86	dose response dependent inhibition of AQP4 mediated water transport ([2]; FIG. 7, 0.01, 0.1, 1.0 and 10 μM solutions, n=5): significant inhibition; IC50 ([2]; Table 3, from inhibitory data at 0.01≦[X]≦100 μM): 0.86 µM
CC(=O)Nc1ccc(S(N)(=O)=O)cc1 [Compound 3, N-(4-sulfamoylphenyl)acetamide]	23 ± 5%	–	–
NC(=O)N1c2ccccc2[C@H]2O[C@H]2c2ccccc21 [Compound 6, (1aR, 10bS)-1aH-dibenzo[b,f] oxireno[2,3-d]azepine-6(10bH)-carboxamide]	40 ± 7%	–	inhibition of AQP4 mediated water swelling / water transport ([1]; FIGS. 1-6, 20 μM inhibitor, hypoosmotic conditions, versus sham and blank oocytes, n=5 minimum): did not show a significantly inhibited water transport
Nc1nnc(-c2cccc(Cl)c2Cl)c(N)n1 [Compound 7, 6-(2,3-dichlorophenyl)-1,2,4-triazine-3,5-diamine]	54 ± 9%	64	IC50 [2, 6]: 8.1 µM
CC1(C)O[C@@H]2[C@@H](CO[C@@]3(COS(N)(=O)=O)OC(C)(C)O[C@@H]23)O1 [Compound 8, ((3aS,5aR,8aR,8bS)-2,2,7,7-tetra-methyltetrahydro-3aH-bis[1,3]dioxolo[4,5-b:4′,5′-d]pyran-3a-yl) methyl sulfamate]	–	75	% Inh (percent inhibition and cumulated error) [1]: 67 ± 6%; IC50 [2, 6]: 10.1 µM
NS(=O)(=O)Cc1noc2ccccc12 [Compound 9, benzo[d]isoxazol-3-ylmethane sulfonamide]	19 ± 5%	–	–
O=C(Nc1nccs1)c1cccnc1 [Compound 11, N-(thiazol-2-yl)nicotinamide]	21 ± 7%	23	IC50 [2, 6]: 3.4 µM
O=S(=O)(Cc1ccccc1)Nc1nncs1 [Compound 12, 1-phenyl-N-(1,3,4-thiadiazol-2-yl) methanesulfonamide]	–	–	% Inh (percent inhibition and cumulated error) [1]: 45 ± 8%
NS(=O)(=O)c1ccc(Cl)s1 [Compound 13, 2-chlorothiophene-5-sulfonamide]	18 ± 9%	–	–
CN(C)CCc1c[nH]c2ccc(Cn3cncn3)cc12 [Compound 15, 2-(5-((1H-1,2,4-triazol-1-yl)methyl)-1H-indol-3-yl)-N,N-dimethylethanamine]	51 ± 5%	54	IC50 [2, 6]: 2.9 µM
COC(=O)Nc1nc2ccc(C(=O)c3cccs3)cc2[nH]1 [Nocodazole]	–	–	inhibition of AQP4 mediated hypoosmotic expansion [3]: inhibiting the AQP4 mediated hypoosmotic expansion of HEK293 cells
CC(=O)Nc1nnc(S(N)(=O)=O)s1 [Table 3 entry 1, N-(5-sulfamoyl-1,3,4-thiadiazol-2-yl)acetamide]	–	–	IC50 [1]: 0.86 µM
O=C1NC(=O)C(c2ccccc2)(c2ccccc2)N1 [Table 3 entry 4, 5,5-diphenylimidazolidine-2,4-dione]	–	–	IC50 [2, 7]: 9.8 µM
CC1(C)O[C@@H]2[C@@H](CO[C@@]3(COS(N)(=O)=O)OC(C)(C)O[C@@H]23)O1 [Table 3 entry 8, ((3aS,5aR,8aR,8bS)-2,2,7,7-tetra-methyltetrahydro-3aH-bis[1,3]dioxolo[4,5-b:4′,5′-d]pyran-3a-yl) methyl sulfamate]	–	–	IC50 [2, 7]: 10.1 µM
O=C(Nc1nncs1)c1cccnc1 [Table 3 entry 10, N-(1,3,4-thiadiazol-2-yl) nicotinamide]	–	–	IC50 [2, 7]: 3.1 µM
CN(C)CCc1c[nH]c2ccc(Cn3cncn3)cc12 [Table 3 entry 15, 2-(5-((1H-1,2,4-triazol-1-yl)methyl)-1H-indol-3-yl)-N,N-dimethylethanamine]	–	–	IC50 [2, 7]: 2.9 µM
CC(=O)Nc1nnc(S(N)(=O)=O)s1 [acetazolamide]	–	–	inhibition of AQP1 [4]: inhibited in a dose dependent manner
CC[N+](CC)(CC)CC.[Cl-] [tetraethyl ammonium chloride]	–	–	inhibition of AQP4 [5]: shown to inhibit AQP4

More lines, main results first:

inhibition at 20 µM [1]	IAmax ([2]; Table 3)	Compound	further results
58 ± 4%	60	O=C1NC(=O)C(c2ccccc2)(c2ccccc2)N1 [Compound 4, 5,5-diphenylimidazolidine-2,4-dione]	IC50 [2, 6]: 9.8 µM
33 ± 4%	–	NC(=O)N1c2ccccc2CC(=O)c2ccccc21 [Compound 5, 10-oxo-10,11-dihydro-5H-dibenzo [b,f]azepine-5-carboxamide]	–
67 ± 6%	73	O=C(Nc1nncs1)c1cccnc1 [Compound 10, N-(1,3,4-thiadiazol-2-yl) nicotinamide]	IC50 [2, 6]: 3.1 µM
23 ± 8%	–	NC(=O)c1nc[nH]c1C(N)=O [Compound 14, 1H-imidazole-4,5-dicarboxamide]	–
